Test results as given in PMC7730961, “Discovery of Novel Dual Extracellular Regulated Protein Kinases (ERK) and Phosphoinositide 3-Kinase (PI3K) Inhibitors as a Promising Strategy for Cancer Therapy” (Molecules, 2020).

Experiments:
Solubility = type: physicochemical; settings: relative to parent after introducing a hydrophilic group at the pyrazole NH
PI3Kα = PI3Kα (Homo sapiens, UniProt P42336); experiment: Enzymatic inhibition assay (ADP-Glo Plus luminescence kinase assay), PI3Kα; type: biochemical; settings: 100 nM compound
Sequence of PI3Kα (P42336 whole entry): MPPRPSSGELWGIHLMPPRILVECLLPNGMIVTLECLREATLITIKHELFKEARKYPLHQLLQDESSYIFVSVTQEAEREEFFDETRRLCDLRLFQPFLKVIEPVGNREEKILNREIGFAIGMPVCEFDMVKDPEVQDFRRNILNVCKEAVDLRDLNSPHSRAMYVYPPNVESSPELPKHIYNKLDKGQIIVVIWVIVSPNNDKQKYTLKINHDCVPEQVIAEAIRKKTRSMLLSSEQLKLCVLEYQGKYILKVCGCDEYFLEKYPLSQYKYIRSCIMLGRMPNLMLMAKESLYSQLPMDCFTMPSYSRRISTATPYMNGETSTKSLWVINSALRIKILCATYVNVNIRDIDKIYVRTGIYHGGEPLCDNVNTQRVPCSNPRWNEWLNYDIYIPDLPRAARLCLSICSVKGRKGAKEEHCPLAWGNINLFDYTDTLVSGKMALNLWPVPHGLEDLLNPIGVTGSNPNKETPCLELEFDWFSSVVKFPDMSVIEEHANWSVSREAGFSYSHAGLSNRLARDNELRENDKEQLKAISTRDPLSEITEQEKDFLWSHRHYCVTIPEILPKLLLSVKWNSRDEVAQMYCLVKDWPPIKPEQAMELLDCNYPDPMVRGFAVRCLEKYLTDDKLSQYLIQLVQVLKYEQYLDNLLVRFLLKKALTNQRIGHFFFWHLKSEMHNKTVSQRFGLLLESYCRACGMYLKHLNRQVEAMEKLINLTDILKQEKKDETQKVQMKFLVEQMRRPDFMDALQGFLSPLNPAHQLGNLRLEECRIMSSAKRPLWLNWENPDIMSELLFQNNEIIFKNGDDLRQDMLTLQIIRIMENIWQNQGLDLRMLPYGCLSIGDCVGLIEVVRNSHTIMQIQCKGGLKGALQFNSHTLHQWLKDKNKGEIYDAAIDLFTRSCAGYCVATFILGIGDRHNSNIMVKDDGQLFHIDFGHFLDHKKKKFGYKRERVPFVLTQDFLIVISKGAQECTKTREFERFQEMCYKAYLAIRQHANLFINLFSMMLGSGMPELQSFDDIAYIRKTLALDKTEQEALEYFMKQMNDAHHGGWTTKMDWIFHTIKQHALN
Sequence of PI3Kα (P27986 whole entry partner): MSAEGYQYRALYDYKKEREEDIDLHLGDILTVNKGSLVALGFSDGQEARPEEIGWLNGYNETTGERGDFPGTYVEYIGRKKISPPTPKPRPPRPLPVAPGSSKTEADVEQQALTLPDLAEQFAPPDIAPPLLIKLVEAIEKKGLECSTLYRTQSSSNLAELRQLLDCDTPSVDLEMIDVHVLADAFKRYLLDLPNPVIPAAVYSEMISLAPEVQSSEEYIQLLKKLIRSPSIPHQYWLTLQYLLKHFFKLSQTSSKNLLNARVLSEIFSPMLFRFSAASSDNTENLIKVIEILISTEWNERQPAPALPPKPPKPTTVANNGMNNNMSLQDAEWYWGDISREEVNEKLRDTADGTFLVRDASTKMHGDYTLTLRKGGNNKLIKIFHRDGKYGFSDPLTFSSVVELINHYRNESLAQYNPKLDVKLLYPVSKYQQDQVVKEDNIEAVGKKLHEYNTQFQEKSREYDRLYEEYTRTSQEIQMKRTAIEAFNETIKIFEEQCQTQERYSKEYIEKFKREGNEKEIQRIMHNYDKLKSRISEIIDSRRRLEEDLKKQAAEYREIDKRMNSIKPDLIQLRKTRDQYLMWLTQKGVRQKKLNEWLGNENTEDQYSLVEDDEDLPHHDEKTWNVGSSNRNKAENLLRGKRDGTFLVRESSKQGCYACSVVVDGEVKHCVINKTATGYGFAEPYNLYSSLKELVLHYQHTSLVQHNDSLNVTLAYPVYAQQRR
Experimental: The 50 µL reaction mixture contains 40 mM Tris-HCl, pH 7.4, 10 µM ATP, 10 mM MgCl2, 0.1 mg/mL BSA, 1 mM DTT, 0.2 ug/mL ERK 2, ERK 1, PI3Kα, PI3Kβ, PI3Kγ or PI3Kδ and 100 uM lipid substrate. All compounds were diluted in 10% DMSO and tested in 10-dose with 3-fold serial dilution starting at a concentration of 1 μM. Of the dilution, 5 µL was added to a 50 µL reaction so that the final concentration of DMSO is 1% in all of reactions. After all of the reaction mixtures were conducted at 30 °C for 40 min, the assay was performed using ADP-Glo Plus luminescence kinase assay kit. The luminescence signal and the intensity of the luminescence signal value were detected using a multi-well spectrophotometer (the MD-SpectraMax M5 multifunctional microplate reader). It was directly proportional to the […] enzyme activity. The experimental results were converted into active percentages, a dose-response curve is drawn, and the IC50 value of inhibition was calculated using […] PRISM 5 nonlinear regression.

HCT116 = experiment: Anti-proliferation assay (MTT, 72 h), HCT116; type: cell-based; settings: Homo sapiens, HCT-116, HCT116 cells
Experimental: (§1) Human cancer cell lines HCT116 and HEC1B were cultured in media with 10% FBS (GIBCO, Invitrogen Corporation, NY, USA) at 37 °C in a 5% (v/v) CO2 humidified incubator. The logarithmic growth phase cells were seeded in a 96-well plate with a density of 1 × 10^5 cells/mL, cultured at 37 °C, 5% CO2. Until the cells were 90% confluent, the medium containing compound was added to incubate for 72 h, and then the cell viability was tested by MTT analysis. Taking the drug concentration as the abscissa and the percentage of proliferation inhibitory activity corresponding to each concentration as the ordinate, using Graphpad Prism 5 to do nonlinear regression, the IC50 value of each compound was calculated.

HEC1B = experiment: Anti-proliferation assay (MTT, 72 h), HEC1B; type: cell-based; settings: Homo sapiens, HEC-1B, HEC1B cells
Experimental: as §1

ERK 2 = ERK 2 (Homo sapiens, UniProt P28482); experiment: Enzymatic inhibition assay (ADP-Glo Plus luminescence kinase assay), ERK2; type: biochemical; settings: 100 nM compound
Sequence of ERK 2 (P28482 whole entry): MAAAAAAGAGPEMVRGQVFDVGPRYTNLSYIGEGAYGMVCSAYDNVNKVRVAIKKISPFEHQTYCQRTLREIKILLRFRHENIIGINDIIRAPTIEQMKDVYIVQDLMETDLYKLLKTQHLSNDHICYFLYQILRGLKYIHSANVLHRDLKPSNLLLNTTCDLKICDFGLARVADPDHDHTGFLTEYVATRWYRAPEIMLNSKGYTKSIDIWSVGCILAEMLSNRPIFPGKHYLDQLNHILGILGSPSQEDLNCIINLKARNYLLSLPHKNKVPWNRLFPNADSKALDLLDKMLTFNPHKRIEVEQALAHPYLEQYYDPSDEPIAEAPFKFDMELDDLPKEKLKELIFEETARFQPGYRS
Experimental: All compounds were diluted in 10% DMSO and tested in 10-dose with 3-fold serial dilution starting at a concentration of 1 μM. Of the dilution, 5 µL was added to a 50 µL reaction so that the final concentration of DMSO is 1% in all of reactions. After all of the reaction mixtures were conducted at 30 °C for 40 min, the assay was performed using ADP-Glo Plus luminescence kinase assay kit. The luminescence signal and the intensity of the luminescence signal value were detected using a multi-well spectrophotometer (the MD-SpectraMax M5 multifunctional microplate reader). It was directly proportional to the inhibition of enzyme activity.

For `O=C(Nc1ncc2ncc(-c3cnn(CCN4CCOCC4)c3)cc2n1)NC1CCCC1` [32l, 1-Cyclopentyl-3-(7-(1-(2-morpholinoethyl)-1H-pyrazol-4-yl)pyrido[3,2-d]pyrimidin-2-yl)urea], which solubility (Solubility) is on record?
The solubility was “ameliorated”.

What about the inhibition at 0.1 µM (PI3Kα) of the same molecule?
The inhibition at 0.1 µM was 63.8%.

And the IC50 (HCT116)?
Its IC50 is 1760 nM.

And the IC50 (HEC1B)?
The IC50 was 3630 nM.

What about the inhibition at 0.1 µM (ERK 2) of the same molecule?
Its inhibition at 0.1 µM is 21.4%.
